In patent US8575163B2, “Pyrrolopyridinylpyrimidin-2-ylamine derivatives” (Merck Patent GmbH, priority 2009, dated 2013):

Tests used:
[1] = tested on: PDK1 kinase activity (phospho-T308-PKB) in PC3 cells; assay: Cellular testing of PDK1 kinase inhibitors in PC3 cells (Luminex, phospho-T308-PKB); format: cell-based; conditions: Homo sapiens, PC-3, 0.5 h, 30 min incubation, serum-free, read-out: IC50 PC3 cells [P-PKB T308]
Procedure: Method for the Cellular Testing of PDK1 Kinase Inhibitors in PC3 Cells.
The cellular assay for the determination of the PDK1 kinase activity is carried out as a Luminex assay in the 96-well format. PC3 cells are shown at 20,000 cells per well in 100 μl of medium (45% of […]/45% of Ham's F12/10% of FCS) and incubated on the following day for 30 min with a serial dilution of the test substance (7 concentrations) under serum-free conditions. The cells are subsequently lysed using 90 μl of lysis buffer (20 mM tris/HCl pH 8.0, 150 mM NaCl, 1% of NP40, 10% of glycerol, 1% of phosphatase inhibitor I, 1% of phosphatase inhibitor II, 0.1% of protease inhibitor cocktail III, 0.01% of benzonase) per well, and the lysates are separated off from insoluble cell constituents by means of centrifugation through a 96-well filter plate (0.65 μm). The lysates are incubated overnight at 4° C. with shaking with Luminex beads to which an anti-total PKB antibody is coupled. The detection is carried out on the following day by addition of a phospho-T308-PKB antibody and a species-specific peroxidase-labelled secondary antibody. The detection of phospho-T308-PKB is carried out by measurement in a Luminex100 instrument by determination of 100 events per cavity in a measurement time of 60 sec. As pharmacological blank, the signals obtained from cells which have been treated with 10 μM staurosporin are subtracted from all other batches. The control value used for maximum phosphorylation of PKB on T308 are the signals from cells which have only been treated with the solvent (0.3% of DMSO). The values of the batches treated with test substance are calculated therefrom as percentage of control, and IC50 values are determined by means of RS1.

PDK1 = biological target: T1, PDK1 (Homo sapiens, UniProt O15530); assay: Test for the inhibition of PDK1 (flashplate, 33P-ATP); format: biochemical; conditions: His6-PDK1 3.4 nM, 4 μM ATP, 30° C., 60 min
T1 construct: His6 (N)
T1 sequence (O15530 51-556 limits assumed): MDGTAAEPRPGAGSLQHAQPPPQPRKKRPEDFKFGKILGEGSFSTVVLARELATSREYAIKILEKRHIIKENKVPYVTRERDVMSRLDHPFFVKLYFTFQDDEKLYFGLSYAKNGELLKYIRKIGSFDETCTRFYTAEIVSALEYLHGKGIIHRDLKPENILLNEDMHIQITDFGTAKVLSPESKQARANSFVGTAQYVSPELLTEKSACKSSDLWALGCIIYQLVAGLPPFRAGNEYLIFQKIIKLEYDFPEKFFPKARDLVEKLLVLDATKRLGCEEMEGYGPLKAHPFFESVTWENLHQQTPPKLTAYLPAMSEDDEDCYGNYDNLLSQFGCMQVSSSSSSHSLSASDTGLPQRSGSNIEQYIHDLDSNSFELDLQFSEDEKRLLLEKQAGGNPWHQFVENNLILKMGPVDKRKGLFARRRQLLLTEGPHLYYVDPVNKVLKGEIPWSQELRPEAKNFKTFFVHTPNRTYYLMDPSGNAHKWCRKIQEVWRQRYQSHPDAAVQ
Outline: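 His6-PDK1(1-50) (3.4 nM) and a biotinylated peptide substrate (400 nM) were incubated 60 min at 30° C with 4 μM ATP containing ^33P-ATP and test compound. Incorporated radioactivity was counted after subtracting a 100 nM staurosporine blank and expressed as % of control; IC50 derived from these.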

Row | Structure (SMILES) | IC50 [1] [nM] | IC50 (PDK1) [nM]
1 | Cn1cc(-c2cnc3[nH]cc(-c4cc(C(O)(c5ccccc5)C(F)(F)F)nc(N)n4)c3c2)cn1 (stereo not shown) [A69, 1-{2-amino-6-[5-(1-methyl-1H-pyrazol-4-yl)-1H-pyrrolo[2,3-b]pyridin-3-yl]-pyrimidin-4-yl}-2,2,2-trifluoro-1-phenylethanol] | 240 | 150
2 | CC[C@@](O)(c1ccc(F)cc1)c1cc(-c2c[nH]c3ncc(-c4cnn(C)c4)cc23)nc(N)n1 (single isomer, unassigned) [A121] | 18 | 48
3 | Cn1cc(-c2cnc3[nH]cc(-c4cc(C(C)(O)c5ccncc5)nc(N)n4)c3c2)cn1 (single isomer, unassigned) [A41, 1-{2-amino-6-[5-(1-methyl-1H-pyrazol-4-yl)-1H-pyrrolo[2,3-b]pyridin-3-yl]-pyrimidin-4-yl}-1-pyridin-4-ylethanol] | 980 | 3.4
4 | CC[C@](O)(c1ccc(F)cc1)c1cc(-c2c[nH]c3ncc(-c4cnn(C)c4)cc23)nc(N)n1 (single isomer, unassigned) [A122] | 18 | 71
5 | CCC[C@@](O)(c1cc(-c2c[nH]c3ncc(-c4cnn(C)c4)cc23)nc(N)n1)c1ccccc1F (single isomer, unassigned) [A129] | 7 | 16
6 | CC(O)(c1cccc(F)c1)c1cc(-c2c[nH]c3ncc(-c4cnn(C(C)(C)C)c4)cc23)nc(N)n1 (stereo not shown) [A120, 1-{2-amino-6-[5-(1-tert-butyl-1H-pyrazol-4-yl)-1H-pyrrolo[2,3-b]pyridin-3-yl]-pyrimidin-4-yl}-1-(3-fluorophenyl)ethanol] | 1100 | 250
7 | CC[C@](O)(c1cc(-c2c[nH]c3ncc(-c4cnn(C)c4)cc23)nc(N)n1)c1cccc(F)c1F (single isomer, unassigned) [A125] | 14 | 7.9
8 | COCO[C@@](C)(c1ccncc1)c1cc(-c2c[nH]c3ncc(Br)cc23)nc(N)n1 (single isomer, unassigned) [A140] | 8900 | 220
9 | CC[C@](O)(c1ccccc1)c1cc(-c2c[nH]c3ncc(-c4cnn(CC(=O)N5CCCCC5)c4)cc23)nc(N)n1 (single isomer, unassigned) [A135] | 34 | 6.9
10 | CC(O)(c1ccccc1)c1cc(-c2c[nH]c3ncc(-c4cnn(C5CCNCC5)c4)cc23)nc(N)n1 (stereo not shown) [A13, 1-{2-amino-6-[5-(1-piperidin-4-yl-1H-pyrazol-4-yl)-1H-pyrrolo[2,3-b]pyridin-3-yl]pyrimidin-4-yl}-1-phenylethanol] | 1200 | 530
11 | Cn1cc(-c2cnc3[nH]cc(-c4cc([C@](O)(c5ccccc5)C(F)(F)F)nc(N)n4)c3c2)cn1 (single isomer, unassigned) [A124] | 48 | 170
12 | Cn1cc(-c2cnc3[nH]cc(-c4cc([C@@](O)(c5ccccc5)C(F)(F)F)nc(N)n4)c3c2)cn1 (single isomer, unassigned) [A123] | 250 | 78
13 | CC[C@](O)(c1ccncc1)c1cc(-c2c[nH]c3ncc(-c4cnn(CC(=O)N5CCCCC5)c4)cc23)nc(N)n1 (single isomer, unassigned) [A45] | 348 | 8
14 | CC(C)[C@](O)(c1ccccc1)c1cc(-c2c[nH]c3ncc(-c4cnn(C)c4)cc23)nc(N)n1 (single isomer, unassigned) [A128] | 470 | 260
15 | COCOC(C)(c1cc(-c2c[nH]c3ncc(-c4cnn(C)c4)cc23)nc(N)n1)c1ccccc1F (stereo not shown) [A119, 4-[1-(2-fluorophenyl)-1-methoxymethoxyethyl]-6-[5-(1-methyl-1H-pyrazol-4-yl)-1H-pyrrolo[2,3-b]pyridin-3-yl]pyrimidin-2-ylamine] | 470 | 36
16 | Cn1cc(-c2cnc3[nH]cc(-c4cc([C@@](C)(O)c5cccc(Cl)c5F)nc(N)n4)c3c2)cn1 (single isomer, unassigned) [A137] | 14 | 28
17 | CC[C@](O)(c1cc(-c2c[nH]c3ncc(-c4cnn(C)c4)cc23)nc(N)n1)c1ccncc1F (single isomer, unassigned) [A131] | 11 | 3.8
18 | CCCC(O)(c1cc(-c2c[nH]c3ncc(-c4cnn(C)c4)cc23)nc(N)n1)c1ccccc1F (stereo not shown) [A118, 1-{2-amino-6-[5-(1-methyl-1H-pyrazol-4-yl)-1H-pyrrolo[2,3-b]pyridin-3-yl]-pyrimidin-4-yl}-1-(2-fluorophenyl)butan-1-ol] | 240 | 29
19 | Cn1cc(-c2cnc3[nH]cc(-c4cc(C(C)(O)c5cccc(F)c5)nc(N)n4)c3c2F)cn1 (stereo not shown) [A106, 1-{2-amino-6-[4-fluoro-5-(1-methyl-1H-pyrazol-4-yl)-1H-pyrrolo-[2,3-b]pyridin-3-yl]pyrimidin-4-yl}-1-(3-fluorophenyl)ethanol] | 5.1 | 26
20 | CCC(O)(c1ccncc1)c1cc(-c2c[nH]c3ncc(-c4cn[nH]c4)cc23)nc(N)n1 (stereo not shown) [A53, 1-{2-amino-6-[5-(1H-pyrazol-4-yl)-1H-pyrrolo[2,3-b]pyridin-3-yl]pyrimidin-4-yl}-1-pyridin-4-ylpropan-1-ol] | 692 | 1.9
